Test results from patent publication US8778948B2, “Substituted phenylpiperazinyl aralkylalcohol derivatives, pharmaceutical compositions containing such derivatives and uses thereof” (priority 2008, dated 2014).
Where a name gives a salt, the structure may show the parent alone. Marks after values point to notes of the source that are not given here.

How the values were obtained:
Kunming mice [1] = assay: Acetic acid-induced abdominal writhing test in mice; type: in vivo; conditions: 1 h before 0.7% acetic acid i.p.
Procedure: Acetic Acid-Induced Abdominal Writhing Test in Mice
Kunming mice, SPF KM mice purchased from […] SLAC LABORATORY ANIMAL CO. LTD and kept in normal environment.
(§1) 2. Modes of Administration
The compounds were dissolved in water for injection at a concentration of 4 mg/ml, 2 mg/ml and 1 mg/ml and were given intragastrically to animals.
(§2) Three different doses (10, 20, and 40 mg/kg) were administered to the test groups.
Aspirin was used as a positive control and acetic acid writhing test was used.
30 mice (half male and half female) weighing 18-23 g were divided into five groups, including negative control group, positive control group, low dose group, medium dose group and high dose group:
Mice in test group received test drug (10 mg/kg, 20 mg/kg, 40 mg/kg) via intragastric administration. Negative control group received physiological saline (20 ml/kg) via oral administration. Positive control group received aspirin (200 mg/kg) via oral administration. One hour later, each group received 0.7% acetic acid 10 ml/kg intraperitoneally. Five minutes later, the number of writhes was counted within the subsequent 15 min period; inhibition percentage of writhing response in each test group was calculated by the following equation: […]

Kunming mice [2] = assay: Hot-plate test in mice; type: in vivo; conditions: 1 h post dose, hot plate 55° C.
Procedure: Kunming mice, SPF KM mice were purchased from […] SLAC LABORATORY ANIMAL CO. LTD and kept in normal environment.
as §1
The compounds were dissolved in water for injection at a concentration of 4 mg/ml, 2 mg/ml and 1 mg/ml and were given subcutaneously to animals.
as §2
Morphine was used as a positive control and hot plate test was used.
30-40 mice (half male and half female) weighing 18-23 g were used. First, each mouse was placed on a hot plat at 55° C. to determine basic pain threshold for 2-3 times. Those animals with basic pain threshold of 5-30 s were qualified, unqualified mice were not used. 30 qualified mice were divided into five groups, including negative control group, positive control group, low-dose group, medium-dose group and high-dose group:
Mice in test groups received test sample solution (10 mg/kg, 20 mg/kg, 40 mg/kg) via subcutaneous injection in the neck. Positive control group received subcutaneous injection of morphine (2 mg/kg). One hour later, pain threshold values were determined for mice in each group as post-drug pain threshold. Percentage increase in pain threshold was calculated according to the following equation: […]

[3] = molecular target: opioid receptor subtype κ (Homo sapiens, UniProt P41145); assay: biochemical; type: binding; conditions: test concentration 10^−5 mol/L; [3H]Diprenorphine 0.4 nM; mean±SE; read-out: Inhibition percentage of competitive binding, κ
Procedure: (§3) Competitive Binding Between the Compounds and Opioid Receptor Subtypes μ, δ, κ
(§4) The respective test compounds were added to the sample tube (final concentration of 10^−5M), incubated at 37° C. for 30 min and placed in ice bath to terminate the reaction. The reaction mixture was filtered through GF/C(Whatman) glass fiber filter by vacuum filtration on a Millipore sample collector. The filter was washed three times with 50 mM Tris-HCl (pH7.4), each with 4 ml; dried and transferred into a 0.5 ml Eppendorf tube, in which 0.5 ml lipophilic scintillation fluid was added. Radioactivity was detected by a LS6500 scintillation counter. Each concentration had three duplicate test tubes and each separate test was repeated 3 to 4 times.
(§5) Specific binding CMP value for each sample tube=overall binding CPM value for each sample tube-CPM value of non-specific binding tube. [Inhibition percentage of competitive binding between the test compound and different opioid receptor subtypes (%)=(100%−specific binding (CPM value) of sample tube/specific binding (CPM value) of solvent group×100%)]
(§6) Average was taken for each test drug from three duplicate tubes; each test was repeated two or more times.

[4] = molecular target: opioid receptor subtype μ (Homo sapiens, UniProt P35372); assay: biochemical; type: binding; conditions: test concentration 10^−5 mol/L; [3H]Diprenorphine 0.4 nM; mean±SE; read-out: Inhibition percentage of competitive binding, μ
Procedure: as §3, §4, §5, §6

[5] = molecular target: opioid receptor subtype δ (Homo sapiens, UniProt P41143); assay: Competitive radioligand binding ([3H]Diprenorphine), opioid receptor subtype δ; conditions: read-out: Inhibition percentage of competitive binding, δ
Procedure: as §3, §4, §5
Average was taken for each test drug from three duplicate tubes; each test was repeated two or more times. Data were presented as mean±SE and statistical comparison was made by ANOVA.

opioid receptor subtype κ, sequence (P41145 whole entry): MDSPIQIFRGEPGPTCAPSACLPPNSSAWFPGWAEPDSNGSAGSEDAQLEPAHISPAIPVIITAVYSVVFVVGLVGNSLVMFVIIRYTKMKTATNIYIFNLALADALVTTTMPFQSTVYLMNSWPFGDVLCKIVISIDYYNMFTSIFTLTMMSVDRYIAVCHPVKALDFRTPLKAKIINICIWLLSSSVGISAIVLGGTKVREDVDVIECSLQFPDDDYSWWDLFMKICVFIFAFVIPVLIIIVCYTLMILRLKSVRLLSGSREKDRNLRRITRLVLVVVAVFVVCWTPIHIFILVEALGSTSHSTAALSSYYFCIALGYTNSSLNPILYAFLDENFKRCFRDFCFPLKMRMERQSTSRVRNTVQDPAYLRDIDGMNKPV
opioid receptor subtype μ, sequence (P35372 whole entry): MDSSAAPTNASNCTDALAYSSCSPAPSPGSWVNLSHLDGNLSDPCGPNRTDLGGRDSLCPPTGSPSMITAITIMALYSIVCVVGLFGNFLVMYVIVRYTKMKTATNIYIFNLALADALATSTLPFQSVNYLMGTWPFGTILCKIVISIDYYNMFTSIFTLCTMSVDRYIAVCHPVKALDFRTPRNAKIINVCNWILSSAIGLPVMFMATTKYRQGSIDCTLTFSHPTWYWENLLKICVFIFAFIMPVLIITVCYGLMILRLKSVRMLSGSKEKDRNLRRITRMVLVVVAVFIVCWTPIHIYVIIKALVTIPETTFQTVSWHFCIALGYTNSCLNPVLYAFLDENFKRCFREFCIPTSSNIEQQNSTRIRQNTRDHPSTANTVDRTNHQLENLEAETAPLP
opioid receptor subtype δ, sequence (P41143 whole entry): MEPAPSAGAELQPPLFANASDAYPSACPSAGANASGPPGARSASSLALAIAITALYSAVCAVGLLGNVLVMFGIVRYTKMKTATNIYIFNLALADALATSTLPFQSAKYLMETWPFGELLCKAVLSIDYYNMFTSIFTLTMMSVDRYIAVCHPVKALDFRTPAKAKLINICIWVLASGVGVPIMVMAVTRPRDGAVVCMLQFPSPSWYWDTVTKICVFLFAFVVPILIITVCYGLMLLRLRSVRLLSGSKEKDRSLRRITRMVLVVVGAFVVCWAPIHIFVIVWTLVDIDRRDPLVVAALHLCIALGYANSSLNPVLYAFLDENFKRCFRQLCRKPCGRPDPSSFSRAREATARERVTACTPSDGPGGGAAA

| Compound | Inhibition percentage of writhing response (Kunming mice [1]; 10 mg/kg Ig) | Inhibition percentage of writhing response (Kunming mice [1]; 20 mg/kg Ig) | Inhibition percentage of writhing response (Kunming mice [1]; 40 mg/kg Ig) | further results |
| --- | --- | --- | --- | --- |
| COc1ccccc1N1CCN([C@H](C)[C@H](O)c2ccccc2)CC1 [III-2, (1R,2R)-1-phenyl-2-(4-(2-methoxyphenyl)piperazinyl)-propan-1-ol] | 64.05 ** % | 76.47 ** % | 86.27 ** % | Percentage increase in pain threshold (Kunming mice [2]; 10 mg/kg S.c.): 72.91%; Percentage increase in pain threshold (Kunming mice [2]; 20 mg/kg S.c.): 133.48 * %; Percentage increase in pain threshold (Kunming mice [2]; 40 mg/kg S.c.): 151.86 * %; inhibition at 10 µM [3]: 40 ± 0.6%; inhibition at 10 µM [4]: 25.1 ± 1.3%; inhibition at 10 µM [5]: 16.8 ± 2.3% |
| CC(=O)Oc1ccccc1C(=O)O [Aspirin, reference compound] |  |  |  | Inhibition percentage of writhing response (Kunming mice [1]; positive control aspirin 200 mg/kg oral): 95.05 ** % |
| C[C@H]([C@H](O)c1ccccc1)N1CCN(c2cccc(Cl)c2)CC1 (racemic) [Compound I-4, (1RS,2RS)-1-phenyl-2-(4-(3-chlorophenyl)piperazinyl)-propan-1-ol] | 35.00% | 49.38 * % | 78.13 ** % |  |
| COc1ccccc1N1CCN([C@H](C)[C@@H](O)c2ccccc2)CC1 [III-1, (1S,2R)-1-phenyl-2-(4-(2-methoxyphenyl)piperazinyl)-propan-1-ol] | 69.28 ** % | 55.56 * % | 67.32 ** % |  |
| C[C@@H]([C@H](O)c1ccccc1)N1CCN(c2cccc(Cl)c2)CC1 (racemic) [Compound I-3, (1RS,2SR)-1-phenyl-2-(4-(3-chlorophenyl)piperazinyl)-propan-1-ol] | 49.61% | 76.38 * % | 83.46 ** % |  |
| COc1ccccc1N1CCN([C@@H](C)[C@@H](O)c2ccccc2)CC1 [II-2, (1S,2S)-1-phenyl-2-(4-(2-methoxyphenyl)piperazinyl)-propan-1-ol] | 69.91 * % | 71.48 * % | 74.34 ** % | inhibition at 10 µM [3]: 36.5 ± 1.6%; inhibition at 10 µM [4]: 5.3 ± 0.9%; inhibition at 10 µM [5]: 12.8 ± 0.8% |
| COc1ccccc1N1CCN([C@@H](C)[C@H](O)c2ccc3c(c2)CC(=O)N3)CC1 (racemic) [IV-1, (1RS,2SR)-5-(1-hydroxy-2-(4-(2-methoxyphenyl)piperazin-1-yl)propyl)indolin-2-one] | 92.92 ** % | 74.34 * % | 89.38 ** % | inhibition at 10 µM [3]: 5.3 ± 0.1%; inhibition at 10 µM [4]: 7.6 ± 0.8%; inhibition at 10 µM [5]: 0% |
| COc1ccc(N2CCN([C@@H](C)[C@H](O)c3ccccc3)CC2)cc1 (racemic) [Compound I-7, (1RS,2SR)-1-phenyl-2-(4-(4-methoxyphenyl)piperazinyl)-propan-1-ol] | 61.02% | 75.42 ** % | 70.34 * % |  |
| COc1ccccc1N1CCN([C@H](C)[C@H](O)c2ccc3c(c2)CC(=O)N3)CC1 (racemic) [IV-2, (1RS,2RS)-5-(1-hydroxy-2-(4-(2-methoxyphenyl)piperazin-1-yl)propyl)indolin-2-one] | 98.23 ** % | 97.35 ** % | 93.81 ** % |  |
| COc1ccc([C@@H](O)[C@@H](C)N2CCN(c3ccccc3OC)CC2)cc1 (racemic) [Compound I-14, (1RS,2RS)-1-(4-methoxyphenyl)-2-(4-(2-methoxyphenyl)piperazinyl)-propan-1-ol] | 74.55 * % | 79.39 * % | 76.36% |  |
| C[C@H]([C@H](O)c1ccccc1)N1CCN(c2cccc(C(F)(F)F)c2)CC1 (racemic) [Compound I-2, (1RS,2RS)-1-phenyl-2-(4-(3-trifluoromethylphenyl)piperazinyl)-propan-1-ol] | 40.53% | 63.16 * % | 68.95 * % |  |
| CN1CC[C@]23c4c5ccc(O)c4O[C@H]2[C@@H](O)C=C[C@H]3[C@H]1C5 [morphine, reference compound] |  |  |  | Percentage increase in pain threshold (Kunming mice [2]; positive control morphine 2 mg/kg S.c.): 202.5 ** % |
| COc1ccccc1N1CCN(C(C)C(O)c2ccc3[nH]c(=O)[nH]c3c2)CC1 (racemic) (as salt: hydrochloride) |  |  |  | melting point: 221 to 223 °C |
| COc1ccccc1N1CCN([C@@H](C)[C@H](O)c2ccccc2)CC1 [II-1, (1R,2S)-1-phenyl-2-(4-(2-methoxyphenyl)piperazinyl)-propan-1-ol] | 30.09% | 47.79 * % | 58.41 * % |  |
| C[C@@H]([C@H](O)c1ccc(NS(C)(=O)=O)cc1)N1CCN(c2cccc(C(F)(F)F)c2)CC1 (racemic) [Compound I-17, (1RS,2SR)-1-(4-methanesulfonamidophenyl)-2-(4-(3-trifluoromethylphenyl)piperazinyl)-propan-1-ol] |  |  |  | Percentage increase in pain threshold (Kunming mice [2]; 10 mg/kg S.c.): 59.02%; Percentage increase in pain threshold (Kunming mice [2]; 20 mg/kg S.c.): 147.36 ** %; Percentage increase in pain threshold (Kunming mice [2]; 40 mg/kg S.c.): 172.27 ** % |
| COc1ccc([C@@H](O)[C@H](C)N2CCN(c3ccccc3OC)CC2)cc1 (racemic) [Compound I-13, (1RS,2SR)-1-(4-methoxyphenyl)-2-(4-(2-methoxyphenyl)piperazinyl)-propan-1-ol] | 73.33 * % | 84.55 * % | 87.88 ** % | Percentage increase in pain threshold (Kunming mice [2]; 10 mg/kg S.c.): 16.19%; Percentage increase in pain threshold (Kunming mice [2]; 20 mg/kg S.c.): 74.59 * %; Percentage increase in pain threshold (Kunming mice [2]; 40 mg/kg S.c.): 142.41 ** % |
| CC(C(O)c1ccc2[nH]c(=O)sc2c1)N1CCN(c2cccc(C(F)(F)F)c2)CC1 (racemic) (as salt: hydrochloride) |  |  |  | melting point: 217 to 219 °C |
| COc1ccccc1N1CCN([C@@H](C)[C@H](O)c2ccc3c(c2)CC(=O)N3)CC1 (racemic) (as salt: hydrochloride) [IV-1, (1RS,2SR)-5-(1-hydroxy-2-(4-(2-methoxyphenyl)piperazin-1-yl)propyl)indolin-2-one] |  |  |  | melting point: 213 to 215 °C |
